Results reported in article PMC7699649 (Communications Biology, 2020).
Several values for one entry are separate records, joined by “and”; a condition that tells them apart may be missing. Identical values can stand only once. Non-standard residues stand in square brackets, D forms with d. Residues, ends and D or L forms follow the SMILES beside them.

Legend:
EMRSA-15 = test: 1H HR-MAS NMR metabolomics of bacterial pellets; assay type: cell-based, Staphylococcus aureus; conditions: EMRSA-15 in MHB, sub-inhibitory challenge v unchallenged; fold change, 1H HR-MAS NMR of pellets
Experimental: S. aureus EMRSA-15 and P. aeruginosa RP73 were streaked on Mueller Hinton agar plates and RPMI (supplemented with 5% FBS) agar plates and incubated at 37 °C overnight or until single colonies formed. […] Cultures were incubated overnight at 37 °C without shaking and pelleted by centrifugation at 4 °C. The supernatant was removed and filtered separately for spent media analysis, the pellet was briefly washed three times with phosphate buffered saline (PBS). The pellets were frozen in liquid nitrogen and lyophilised overnight in an Alpha 1–2 LD plus freeze dryer (Martin Christ, Germany) and stored at −20 °C until required. Samples were transferred into HR-MAS inserts for use in 4 mm Bruker MAS rotor and resuspended in 30 μl of D2O containing 3-(Trimethylsilyl)propionic-2,2,3,3-D4 acid sodium salt (TMSP-2,2,3,3-D4). The removed supernatant was filtered through 0.2 μm filters and pH adjusted to within 0.3 pH units within the same sample set. The samples were supplemented with 10% D2O containing TMSP-2,2,3,3-D4 and loaded into 5.0 mm NMR tubes.
NMR spectra were collected at 600 MHz for ^1H on a Bruker Avance II spectrometer (Bruker Biospin, Coventry, UK) with a 4 mm HR-MAS probe at 310 K while spinning at 5 kHz. ^1H NMR spectra were acquired using a Carr-Purcell Meiboom-Gill pre-saturation (cpmgpr1d) pulse sequence with a spectrum width of 16.0 ppm and 9615 data points using 64 transients. Free induction decay was multiplied by an exponential function with 0.293 Hz line broadening. 2D ^1H–^1H correlation spectroscopy (COSY) and ^1H–^13C Heteronuclear Single Quantum Correlation (HSQC) experiments were performed on representative datasets using standard Bruker settings.
The spectra were Fourier transformed automatically using standard Bruker commands and manually phased and baseline corrected in Bruker TopSpin 4.0 (Bruker Biospin, Coventry, UK). Spectral pre-processing, cross-validation and multivariate analysis were carried out using the in-house programme developed by Dr Louic Vermeer and MVAPACK, an opensource Octave library for NMR metabolomic data processing and analysis. Pre-processing modifies NMR spectra and reduces the variances and influences which are not of interest and may interfere with data analysis, for example, residual water peak or noise and the TSP reference peak. Initially a principle component analysis was carried out to identify clustering spectra and potential outliers in the data, due to e.g. poor baseline. Data were then subject to probabilistic quotient normalisation before binning and alignment. Orthogonal Projections to Latent Structures Discriminant Analysis analyses were conducted to establish the quality of binary comparisons of the metabolomic data (Supplementary Table 4). […] The Mann–Whitney U test was used to compare means and associated p values were false discovery rate adjusted using the Benjamini-Hochberg method (α = 0.05). Box plots were generated using changes in normalised intensity for each metabolite and significant differences between challenges and controls were determined using a one-way ANOVA. Volcano plots and box plots were generated using in-house software developed for Jupyter Notepad using Python 3.7.0. Metabolites were assigned using the databanks: Chenomx NMR suite software (Chenomx Inc., Canada), Human Metabolome Database, BMRB, E. coli Metabolome Database and AOCS lipid library; and a comparison of chemical shifts to the literature, which was confirmed using 2D NMR spectra. Annotated spectra can be found in the supplementary materials (Supplementary Fig. 15). Metaboanalyst and KEGG were later used to identify key pathways that may be affected by these metabolites.

BAL cells = test: Murine EMRSA-15 lung infection model: BAL total and differential cell count; assay type: in vivo, C57Bl6J mice; conditions: 48 h
Experimental: Using the recently developed method[65], an overnight culture of EMRSA-15 was prepared in tryptic soy broth (TSB). EMRSA-15 was cultured in TSB overnight at 37 °C, adjusted to a starting OD600 of 0.025, and grown for additional 4 h for agar beads preparation. EMRSA-15 was embedded into agar beads by mixing the overnight culture with molten tryptic soy agar, which was then spun into warmed mineral oil. The preparation was cooled and centrifuged at 2700 × g, the remaining oil was eliminated, and the beads were washed in sterile PBS. The CFU content of the beads slurry was subsequently quantified on TSA plates and the beads slurry then diluted to 2 × 10^7 CFU/ml in sterile PBS to deliver a final dose of 1 × 10^6 CFU/mouse. Animal work was performed in accordance with the Animals (Scientific Procedures) Act of 1986 (United Kingdom) and 2012 revisions with local ethical approval of King’s College London. On day 0, male C57Bl6J mice (8–10 weeks, Charles River) were anaesthetised under Isoflurane and 50 µl inoculum of EMRSA-15 embedded in agar beads (10^6 CFU/mouse) was instilled directly into the respiratory tract via oropharyngeal dosing (o.a.). Sham control mice were inoculated with sterile PBS agar beads. […] Body weight was measured daily, and animals monitored at regular intervals for signs of pain and distress. After 48 h of pulmonary infection, animals were terminally euthanized using 25% urethane via intra-peritoneal injection. CFUs were quantified in lung homogenates. Lung homogenates were then centrifuged at 14000 rpm for 30 min at 4 °C and the supernatants were stored at −80 °C for future analysis. For BAL fluid collection and analysis (total and differential cell count), a 22-gauge catheter was inserted into the trachea and BAL was recovered by instillation of 0.5 ml of sterile PBS three times and total cells counts were performed by adding Turks stain in a 1:1 ratio. BAL fluid was then centrifuged, and supernatants were stored at −20 °C. Total levels of TNFα, IL-6, KC and MCP-1 were quantified from BAL fluid collected from all animals and measured by ELISA according to the manufacturer protocol (R&D Systems UK). Concentrations of all mediators were then normalised to total protein content of BAL fluid quantified via bicinchoninic acid total protein assays performed to manufacturers protocols (Thermofisher Scientific). […] Statistical analysis was by one-way ANOVA with Dunnett’s multiple comparisons test.

[1] = tested on: EMR Staphylococcus aureus-15 NCTC 13616; conditions: RPMI supplemented with 5% FBS (value in parentheses); twofold broth microdilution, 20 h 37 C, OD600; modal MIC, at least three biological replicates
Experimental: The antibacterial activity of the peptides was assessed through a modified twofold broth microdilution assay with modal MICs generated from at least three biological replicate experiments[20],[25]. The method broadly followed EUCAST methodology, with non-cation-adjusted Mueller Hinton or RPMI replacing cation-adjusted Mueller Hinton. Peptides and antibiotics were diluted in a twofold dilution in media down a 96 well plate. Bacteria were then added, back-diluted from an overnight culture, at a starting concentration of 5 × 10^5 CFU/ml. Plates were incubated, static at 37 C, for 20 h and the OD600 was determined using a Clariostar plate reader (BMG Labtech). […] Synergy was measured using standard microdilution checkerboard assays under the same conditions as the MICs[54]. Twofold dilution series of each peptide or antibiotic were prepared in separate 96 well plates and then combined into one before addition of bacteria. The growth/no growth interface was determined using the same definition as the MIC. The fractional inhibitory concentration was calculated from the most synergistic well on the plate for three independent repeats, and presented as the average +/− standard deviation. FIC is calculated as (MIC of compound A in combination with B/MIC of compound A alone) + (MIC of compound B in combination with A/MIC of compound B alone). MICs were determined on the same plates as the FICs to increase reproducibility.

human red blood cells = test: Haemolysis assay; assay type: cell-based; conditions: human red blood cells in PBS, 1 h 37 °C, OD550, relative to 0.1% Triton-X-100
Experimental: Haemolysis was tested by incubating titrations of AMPs in PBS with freshly collected human red blood cells for 1 h at 37 °C. Control wells were treated with 0.1% Triton-X-100 to ensure complete lysis, or PBS-only to represent no lysis. Samples were spun down to remove non-lysed cells and the OD550 of the supernatant was measured using a Clariostar plate reader. The percentage of haemolysis was calculated as % haemolysis = (AP − AB)/(AC − AB) × 100, where AP is the absorbance value for a known peptide concentration, AC is the absorbance of the 0.1% Triton-X-100 control, AB is the absorbance of the PBS control. Data presented are averages and standard error from three biological replicate experiments.

[2] = in words
IL-6 = test: Murine EMRSA-15 lung infection model: BAL cytokine ELISA; assay type: in vivo, C57Bl6J mice; conditions: 600 mg/kg vancomycin or D-pleurocidin-KR (also lowest dose 0.15 mg/kg) i.v., 48 h

## CC(C)C[C@@H](NC(=O)[C@@H](Cc1ccc(O)cc1)NC(=O)[C@@H](Cc1c[nH]cn1)NC(=O)[C@H](NC(=O)[C@@H](CC(C)C)NC(=O)[C@@H](C)NC(=O)[C@@H](C)NC(=O)[C@@H](CCCNC(=N)N)NC(=O)CNC(=O)[C@H](NC(=O)[C@@H](Cc1c[nH]cn1)NC(=O)[C@@H](CCCNC(=N)N)NC(=O)CNC(=O)[C@H](NC(=O)[C@@H](Cc1c[nH]cn1)NC(=O)[C@@H](C)NC(=O)[C@@H](C)NC(=O)[C@@H](CCCNC(=N)N)NC(=O)[C@@H](CCCNC(=N)N)NC(=O)[C@@H](Cc1ccccc1)NC(=O)[C@@H](Cc1ccccc1)NC(=O)[C@@H](CO)NC(=O)CNC(=O)[C@@H](Cc1c[nH]c2ccccc12)NC(=O)CN)C(C)C)C(C)C)[C@H](C)O)C(N)=O [D-pleurocidin-KR] (H-G[dW]G[dS][dF][dF][dR][dR][dA][dA][dH][dV]G[dR][dH][dV]G[dR][dA][dA][dL][dT][dH][dY][dL]-NH2; N-terminus assumed)
EMRSA-15
  fc 2-aminobutyrate: 0.991
  fc Acetate: 1.149
  fc Acetyl-Phosphocholine (1): 0.9923
  fc Acetyl-Phosphocholine (2): 1.003
  fc Adenosine: 1.125
  fc Alanine: 0.9478
  fc Aspartate: 0.8483
  fc Betaine: 0.9779
  fc Choline: 1.051
  fc Citrulline: 0.9363
  fc Glutamate: 0.896
  fc Glycerol (lipid headgroup) (1): 0.9028
  fc Glycerol (lipid headgroup) (2): 1.031
  fc Glycerol (lipid headgroup) (3): 0.9777
  fc Isoleucine: 1.148
  fc Lactate: 1.293
  fc Leucine: 1.172
  fc Lipid -CH=CH-: 1.134
  fc Lipid-CH₃: 1.116
  fc Lysine: 1.027
  fc N-acetyl-x (1): 0.8941
  fc N-acetyl-x (2): 1.036
  fc N-acetyl-x (3): 0.9489
  fc Proline: 1.056
  fc Succinate: 0.8785
  fc Unassigned 1.47ppm: 0.8868
  fc Unassigned 3.4802ppm: 0.9293
  fc Unassigned 8.55ppm: 0.9285
  fc Uracil: 1.738
  fc Valine: 1.029
  fc ᴅ-alanine (LTA): 1.157
BAL cells; 600 mg/kg vancomycin or D-pleurocidin-KR (also lowest dose 0.15 mg/kg) i.v.
  neutrophil recruitment (BAL): reduced
BAL cells; vancomycin or D-pleurocidin-KR i.v.
  macrophage numbers in BAL: No effects
[1]
  MIC, peptide concentration: 0.5 µg/mL
Human red blood cells
  haemolysis at the highest concentration tested 400 µg/ml: 50%
Human red blood cells; three biological replicates
  concentration at which 10% haemolysis is achieved: above 64 µg/ml and ~ 75 µg/ml
[2]
  solubility in aqueous media: readily soluble
IL-6
  IL-6 in BAL: reduced
